This note sets out measurements from ChEMBL document CHEMBL1131974, “Asymmetric synthesis and antitumor activity of cycloalkanin” (1999).

Experiment [1] has as its system P388. In words: In vitro cytotoxic activity against P388 tumor cell line by MTT assay at 48 hour at a concentration 10E-7 (M/L). It is filed as functional, Mus musculus.
Experiment [2] relates to A549. In words: In vitro cytotoxic activity against A549 tumor cell line by SRB assay at 72 hour at a concentration 10E-8 (M/L). It is filed as functional, Homo sapiens. On the technique in general: The SRB assay estimates cell density from bound dye.
For experiment [3], the system named is P388. Nature of the experiment: In vitro cytotoxic activity against P388 tumor cell line by MTT assay at 48 hour at a concentration 10E-5 (M/L). It is filed as functional, Mus musculus. (Tetrazolium assays rely on reduction of a dye to a coloured formazan, in cell work by metabolically active cells.)
The subject of experiment [4] is P388. Nature of the experiment: In vitro cytotoxic activity against P388 tumor cell line by MTT assay at 48 hour at a concentration 10E-8 (M/L). It is filed as functional, Mus musculus.
Experiment [5] relates to A549. Nature of the experiment: In vitro cytotoxic activity against A549 tumor cell line by SRB assay at 72 hour at a concentration 10E-6 (M/L). It is filed as functional, Homo sapiens.
Experiment [6] concerns A549. Nature of the experiment: In vitro cytotoxic activity against A549 tumor cell line by SRB assay at 72 hour at a concentration 10E-5 (M/L). It is filed as functional, Homo sapiens.
Experiment [7] relates to P388. In words: In vitro cytotoxic activity against P388 tumor cell line by MTT assay at 48 hour at a concentration 10E-4 (M/L). It is filed as functional, Mus musculus.
Experiment [8] has as its system P388. Nature of the experiment: In vitro cytotoxic activity against P388 tumor cell line by MTT assay at 48 hour at a concentration 10E-6 (M/L). It is filed as functional, Mus musculus.
In experiment [9] the test system is A549. In words: In vitro cytotoxic activity against A549 tumor cell line by SRB assay at 72 hour at a concentration 10E-4 (M/L). It is filed as functional, Homo sapiens.
Experiment [10] has as its system A549. In words: In vitro cytotoxic activity against A549 tumor cell line by SRB assay at 72 hour at a concentration 10E-7 (M/L). It is filed as functional, Homo sapiens.

Broadly, the Inhibition is how much of the control response was suppressed. A high value points to a response far below the control. `CC1(C)CC[C@H](C2=CC(=O)c3c(O)ccc(O)c3C2=O)O1`: the Inhibition is 98.9% in experiment [1]; 0% in [2]; 98.9% in experiment [3]; 98.9% in [4]; 24.7% in experiment [5]; 93.5% in experiment [6]. In addition, the Inhibition in [7] worked out at 98.9%; in experiment [8], 98.9%; in experiment [9] it was 92.5%; in experiment [10] it was 14%.
